Like-named read-outs stand apart in the source and are kept apart here.

Assay [1] concerns Beet Armyworm (Spodoptera exigua). Nature of the assay: Insecticidal diet-surface test for beet armyworm. Type of assay: in vivo. Particulars: 120 h, second-instar larvae on treated diet, 50 μg/cm^2 on diet surface, 5 days after treatment, 8 insects per treatment, read-out: LAPHEG AVG % Mortality (50 μg/cm^2). Put shortly: (§1)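 Second-instar larvae placed on lepidopteran diet surface-treated with 50 μL of 2000 ppm compound in 9 acetone:1 water (stated as 50 μg/cm^2), eight wells per species. Held 5 days at 25° C, 50-55% RH, 16:8 h light:dark; mortality of 8 larvae scored as percent control.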

For assay [2], the system named is Corn Earworm (Helicoverpa zea). Nature of the assay: Insecticidal diet-surface test for corn earworm. Type of assay: in vivo. Particulars: 120 h, read-out: HELIZE AVG % Mortality (50 μg/cm^2). Put shortly: as §1
The mark [3] stands for this setting: second-instar larvae on treated diet, 50 μg/cm^2 on diet surface, 5 days after treatment, 8 insects per treatment.

As for `CCOC(=O)N(C(=O)Nc1nc(OCC(F)(F)F)cc(OCC(F)(F)F)n1)c1ccc(C(F)(F)F)cc1` [Compound 35], the mortality at 50 µg/cm2 in assay [1] and in assay [2] was 100% each time.

As to `CN(C(=O)Nc1nc(OCC(F)(F)F)cc(OCC(F)(F)F)n1)c1ccc(Br)c(C(F)(F)F)c1` [Compound 181], the mortality at 50 µg/cm2 in assay [1] and in assay [2] (setting [3]) was 100% each time.

Turning to `COCN(C(=O)N(COCc1ccccc1)c1nc(OCC(F)(F)F)cc(OCC(F)(F)F)n1)c1ccc(C(F)(F)F)cc1` [Compound 37], the mortality at 50 µg/cm2 in assay [1] and in assay [2] (setting [3]) was 100% each time.

`O=C(Nc1ccc(OC(F)(F)F)cc1)N(COCc1ccccc1)c1nc(OCC(F)(F)F)cc(OCC(F)(F)F)n1` [Compound 43]: the mortality at 50 µg/cm2 in assay [1] and in assay [2] (setting [3]) was 100% throughout.

Regarding `CN(C(=O)Nc1nc(OCC(F)(F)F)cc(OCC(F)(F)F)n1)c1ccc(Br)c(Cl)c1` [Compound 84], the mortality at 50 µg/cm2 in assay [1] and in assay [2] (setting [3]) was 100% in each case.

With `CN(C(=O)Nc1nc(OCC(F)(F)F)cc(OCC(F)(F)F)c1F)c1ccc(Br)cc1` [Compound 183, N′-[3-fluoro-4,6-bis(2,2,2-trifluoroethoxy)pyridin-2-yl]-N-methyl-N-(4-bromophenyl)urea], the values for the mortality at 50 µg/cm2 in assay [1] and in assay [2] (setting [3]) were 100% and 50%, respectively.

`CN(C(=O)Nc1cc(C(F)(F)F)cc(OCC(F)(F)F)n1)c1ccc(C(F)(F)F)cc1` [Compound 162]: the mortality at 50 µg/cm2 in assay [1] and in assay [2] (setting [3]) was 100% each time.

`CCOCN(C(=O)N(COCc1ccccc1)c1nc(OCC(F)(F)F)cc(OCC(F)(F)F)n1)c1ccc(C(F)(F)F)nc1` [Compound 88]: the mortality at 50 µg/cm2 in assay [1] and in assay [2] (setting [3]) was 100% in each case.

For the molecule `CN(C(=O)Nc1cc(OCC(F)(F)F)nc(OCC(F)(F)F)n1)c1ccc([N+](=O)[O-])cc1` [Compound 111], the mortality at 50 µg/cm2 amounted to 100% in assay [1] and 88% in assay [2] (setting [3]).

In the case of `CCOCN(C(=O)Nc1ccc(C(F)(F)F)cc1)c1nc(OCC(F)(F)F)cc(OCC(F)(F)F)n1` [Compound 18], the mortality at 50 µg/cm2 in assay [1] and in assay [2] (setting [3]) was 100% each time.

`Cc1c(OCC(F)(F)F)nc(NC(=O)Nc2ccc(C(F)(F)F)nc2)nc1OCC(F)(F)F` [Compound 143]: the mortality at 50 µg/cm2 in assay [1] and in assay [2] (setting [3]) was 100% throughout.

Consider `CC1(COc2cc(OCC(F)(F)F)nc(NC(=O)Nc3ccc(C(F)(F)F)cc3)n2)CC1(Cl)Cl` (stereo not drawn) [Compound 101], for which the mortality at 50 µg/cm2 in assay [1] and in assay [2] (setting [3]) was 100% each time.

On to `O=C(Nc1ccc(Br)nc1)Nc1nc(OCC(F)(F)F)c(Cl)c(OCC(F)(F)F)n1` [Compound 146], for which the mortality at 50 µg/cm2 in assay [1] and in assay [2] (setting [3]) was 100% throughout.

As to `Cc1c(OCC(F)(F)F)nc(NC(=O)Nc2ccc(C(F)(F)F)cc2)nc1OCC(F)(F)F` [Compound 147], the mortality at 50 µg/cm2 was 88% in assay [1] and 100% in assay [2] (setting [3]).

On to `CCOc1cc(OCC(F)(F)F)nc(NC(=O)Nc2ccc(C(F)(F)F)cc2)n1` [Compound 100], for which the mortality at 50 µg/cm2 in assay [1] and in assay [2] (setting [3]) was 100% throughout.

For the origin of these results see US8455649B2, “Insecticidal substituted azinyl derivatives” (Dow AgroSciences, LLC, priority 2007, dated 2013).
